# Source: PubChem BioAssay (NCI)
# Where “and” joins values, the source holds several entries; their conditions need not be identical. Equal values may be shown once.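 Where inhibition never reached the appropriate level, the endpoint shown equals the highest concentration tested. Otherwise, values were interpolated linearly from a five-concentration, 48-hour dose response in 96-well plates. Here, GI50 denotes the concentration required for 50% inhibition of growth. The concentration for full growth arrest is given as TGI.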 Where a SMILES comes first, the peptide text is derived from it. [ ]: non-standard residue; d: D form. ξ: configuration not given here. Pentanoyl(2-O,4-OH,5-Cl) = O=C(O)C(O)CC(O)CCl; Ile(3ξ) = CCC(C)[C@H](N)C(=O)O; NMeV = CN[C@H](C(=O)O)C(C)C; NMeA = CN[C@@H](C)C(=O)O; βAla = NCCC(=O)O
# What was measured:
# Assay in all cases: growth of human tumour cells (NCI), 48 h
# TK-10 renal = system: TK-10 renal
# NCI-H226 lung = system: NCI-H226 lung
# HOP-92 NSCLC = system: HOP-92 NSCLC
# NCI-H522 lung = system: NCI-H522 lung
# LOX IMVI melanoma = system: LOX IMVI melanoma
# HT29 colon = system: HT29 colon
# A549 NSCLC = system: A549 NSCLC
# A498 renal = system: A498 renal
# SNB-19 CNS = system: SNB-19 CNS
# DU-145 prostate = system: DU-145 prostate
SMILES,TGI (TK-10 renal),TGI (NCI-H226 lung) [µM],TGI (HOP-92 NSCLC) [µM],TGI (NCI-H522 lung) [µM],TGI (LOX IMVI melanoma),TGI (HT29 colon),TGI (A549 NSCLC),TGI (A498 renal),TGI (SNB-19 CNS),GI50 (TK-10 renal) [µM],GI50 (NCI-H226 lung) [µM],GI50 (HOP-92 NSCLC) [µM],GI50 (NCI-H522 lung) [µM],GI50 (LOX IMVI melanoma) [µM],GI50 (HT29 colon) [µM],GI50 (A549 NSCLC) [µM],GI50 (SNB-19 CNS) [µM],GI50 (A498 renal) [µM],TGI (DU-145 prostate) [µM]
CC1COS(=O)N1c1ccccc1 (stereo not drawn),> 100 µM,> 100,> 100,> 100,> 100 µM,> 100 µM,> 100 µM,> 100 µM,–,–,–,–,–,–,–,–,–,–,–
NCCNCCNCc1c2ccccc2c(CNCCNCCN)c2ccccc12,> 100 µM,> 100,84.1,–,> 100 µM,> 100 µM,> 100 µM,–,–,–,–,–,–,–,–,–,–,–,–
O=C(c1ccccc1)[C@H]1Nc2ccc(Cl)cc2[C@H]2c3ccccc3O[C@H]21,30.4 µM,–,–,33.8,37.2 µM,26.1 µM,30.2 µM,24.5 µM,29.3 µM,–,–,–,–,–,–,–,–,–,–
[O-]c1ccccc1C=NCCN=Cc1ccccc1[O-].[O]=[U+2]=[O],53.1 µM,> 63.6,48.3,> 75.2,> 100 µM,> 100 µM,> 100 µM,> 64.8 µM,> 67.3 µM,26.3,> 42.5,22.6,> 53.4,22.2,> 100,43.1,23.3,> 45.6,–
CS(=O)(=O)N(CCC#N)c1ccc(/C=C2\N=C(c3ccccc3Cl)OC2=O)cc1,> 100 µM,> 100,–,> 100,> 100 µM,> 100 µM,> 100 µM,> 100 µM,> 100 µM,–,–,–,–,–,–,–,–,–,–
CC[O-].CC[O-].[O-]c1ccccc1C=NC12CC3CC(CC(C3)C1)C2.[O-]c1ccccc1C=NC12CC3CC(CC(C3)C1)C2.[Ti+4],> 100 µM,> 100,> 100,–,> 100 µM,> 100 µM,> 100 µM,–,> 100 µM,> 100,> 100,34.4,–,57.8,> 100,> 100,> 100,–,–
O=C(c1ccccc1)c1nc2ccc(Cl)cc2cc1C(Br)Br,1.83 µM,3.26,–,3.68,3.7 µM,0.743 µM,3.31 µM,9.45 µM,1.42 µM,–,–,–,–,–,–,–,–,–,1.97
CC(C)CC(NC(=O)C(O)C(N)Cc1ccccc1)C(=O)O (stereo not drawn),> 100 µM,> 100,> 100,–,> 100 µM,> 100 µM,> 100 µM,–,> 100 µM,–,–,–,–,–,–,–,–,–,> 100
Cc1cccc(-c2nc(=S)[nH][nH]2)c1,> 100 µM,> 100,> 100,> 100,–,> 100 µM,> 100 µM,> 100 µM,> 100 µM,–,–,–,–,–,–,–,–,–,–
O=C1c2ccccc2C(=O)N1C/C=N/NS(=O)(=O)c1cccc([N+](=O)[O-])c1,> 100 µM,–,–,> 100,> 100 µM,> 100 µM,> 100 µM,> 100 µM,> 100 µM,–,–,–,–,–,–,–,–,–,–
O=C1/C(=C/c2cc(O)c(O)c(O)c2)Oc2cc(O)cc(OC3OC(CO)C(O)C(O)C3O)c21 (stereo not drawn),> 100 µM,–,38.7,–,–,59.5 µM,> 100 µM,> 100 µM,> 100 µM,–,–,–,–,–,–,–,–,–,–
"CCC(C)[C@@H]1NC(=O)[C@@H]2CCCN2C(=O)C(CC(O)CCl)OC(=O)CCNC(=O)[C@H](C)N(C)C(=O)[C@H](C(C)C)N(C)C1=O (stereo partly drawn) (cyclo([Ile(3ξ)][NMeV][NMeA][βAla][Pentanoyl(2-O,4-OH,5-Cl)]P))",> 100 µM,> 100,8.13,> 100,–,> 100 µM,> 100 µM,> 93.5 µM,> 100 µM,–,–,–,–,–,–,–,–,–,> 100
CC1=NC2(C(=O)O)C3(C(=O)O)N=C(C)OC3(C(F)(F)F)C2(C(F)(F)F)O1 (stereo not drawn),> 100 µM,> 100,> 100,> 100,> 100 µM,> 100 µM,> 100 µM,> 100 µM,> 100 µM,–,–,–,–,–,–,–,–,–,–
[N-]=[N+]=NC1C(Cl)C(=O)NC(=O)N1[C@H]1C[C@H](O)[C@@H](CO)O1 (stereo partly drawn),> 100 µM,–,> 100,36.2,> 100 µM,> 100 µM,> 100 µM,> 100 µM,> 100 µM,–,–,–,5.31,–,–,–,–,–,–
CC(C)N1CCOC(c2ccc(O)c(O)c2)C1 (stereo not drawn),> 100 µM,–,> 100,> 100,> 100 µM,> 100 µM,> 100 µM,–,> 100 µM,–,–,–,–,–,–,–,–,–,–
O=C(O)c1c2c(c(O)c3c1CN(C1CCCCC1)CO3)OCN(C1CCCCC1)C2,> 100 µM,–,> 100,95.9,39.7 µM,> 100 µM,> 100 µM,> 100 µM,> 100 µM,–,–,–,–,–,–,–,–,–,> 100
COc1ccc(-c2cc(=O)c3c(C)ccnc3[nH]2)cc1,> 100 µM,> 100,–,> 100,> 100 µM,40.5 µM,> 100 µM,41.4 µM,> 100 µM,–,–,–,–,–,–,–,–,–,> 100
O=c1cc(-c2cccc(Cl)c2)[nH]c2cc3c(cc12)OCO3,39.3 µM and 22.4 µM,–,21.8,2.8,38.8 µM and 40.2 µM,9.41 µM and 15.4 µM,75 µM and 18.1 µM,36.9 µM and 29.6 µM,75 µM and 10.2 µM,–,–,–,–,0.434,3.19,0.829,0.363,1.04,0.863
CSC(=Nc1ccc([N+](=O)[O-])cc1C#N)NC(=O)c1ccccc1,> 100 µM,> 100,> 100,–,> 100 µM,> 100 µM,> 100 µM,> 100 µM,> 100 µM,–,–,–,–,–,–,–,–,–,–
O=C1C2C3SC(c4cc5ccccc5cc43)C2C(=O)N1c1ccccc1 (stereo not drawn),> 100 µM,> 100,> 100,> 100,> 100 µM,> 100 µM,> 100 µM,> 100 µM,> 100 µM,–,–,–,–,–,–,–,–,–,–
O=S1(=O)[C@H](c2ccccc2)c2c(-c3ccccc3)sc(-c3ccccc3)c2[C@@H]1c1ccccc1,> 100 µM,–,> 100,> 100,> 100 µM,> 100 µM,> 100 µM,–,> 100 µM,–,–,–,–,–,–,–,–,–,–
C[C@]12CC[C@H]3[C@@H](CCC4=CC(=O)CC[C@@]43C)[C@]1(O)CC[C@]2(O)C(=O)CO,> 100 µM,> 100,–,> 100,> 100 µM,> 100 µM,> 100 µM,> 100 µM,> 100 µM,–,–,–,–,–,–,–,–,–,> 100
